The values that follow are results of earlier work, collected in US7332498B2, “Modulation of KSP kinesin activity with heterocyclic-fused pyrimidinone derivatives” (Cytokinetics, Inc., priority 2002, dated 2008).

The test system of the data set is A549 cells. To be noted: data provided by National Cancer Institute, Developmental Therapeutic Program.

By GI50 is commonly meant the concentration giving 50% growth inhibition. Take `O=c1[nH]cc(F)c(=O)[nH]1` [5-fluorouracil]: the concentration for 50% growth inhibition (GI50) is 1000 nM.
As for `COc1cccc2c1C(=O)c1c(O)c3c(c(O)c1C2=O)C[C@@](O)(C(=O)CO)C[C@@H]3O[C@H]1C[C@H](N)[C@H](O)[C@H](C)O1` [doxorubicin], the GI50 was 63 nM.
On to `NC(=O)NO` [hydroxyurea], for which the GI50 is 500000 nM.
With `CC(=O)O[C@H]1C(=O)[C@@]2(C)[C@H]([C@H](OC(=O)c3ccccc3)[C@]3(O)C[C@H](OC(=O)[C@H](O)[C@@H](NC(=O)c4ccccc4)c4ccccc4)C(C)=C1C3(C)C)[C@]1(OC(C)=O)CO[C@@H]1C[C@@H]2O` [paclitaxel], the GI50 was 4 nM.
